These results are taken from patent US20240425464A1, “Substituted Monohydrazides as Potent Antifungal Agents” (University of Kentucky Research Foundation, priority 2023, published 2024).

Converted amounts (≈) assume the structure as drawn. Like-named read-outs stand apart in the source and are kept apart here. Bounds are passed on as bounds.

Holding throughout (experiment): MIC determination by in vitro antifungal assay
What all share (format): cell-based

In assay [1] the test system is Candida glabrata ATCC 2001 (H). The following applies: ATCC 2001 in text. Summed up: (§1)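 Twofold dilutions spanning 0.06–31.3 μg/mL were incubated with fungi for 48 h at 35° C in MOPS-buffered RPMI 1640 (pH 7.0), following modified CLSI M27-A3 and M38-A2 methods. Yeast cells were grown overnight in YPD, set to OD600 0.12 (~1×10^6 CFU/mL), then diluted 1:100.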
For assay [2], the system named is Candida krusei ATCC 6258 (I). Summed up:
as §1

In assay [3] the test system is Candida parapsilosis ATCC 22019 (J). The gist of the method:
as §1

Assay [4] has as its system Aspergillus flavus ATCC MYA-3631 (O). The settings on record: strain O = A. flavus ATCC MYA-3631. The gist of the method: (§2)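 Broth microdilution following CLSI M27-A3/M38-A2 with minor modifications, in RPMI 1640 buffered to pH 7.0 with 0.165 M MOPS. Yeast inoculum came from an overnight YPD culture, set to OD600 0.12 (˜1×10^6 CFU/mL) and then diluted 1:100. Compounds were tested in two-fold dilutions at 0.06-31.3 μg/mL for 48 h at 35° C.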

For assay [5], the system named is Aspergillus nidulans ATCC 38163 (P). Summed up: as §2
The subject of assay [6] is Aspergillus terreus ATCC MYA-3633 (N). The settings on record: strain N = A. terreus ATCC MYA-3633. The gist of the method:
as §2

Assay [7] concerns Cryptococcus neoformans ATCC MYA-895 (M). The settings on record: strain M = C. neoformans ATCC MYA-895. The gist of the method: as §1
Where [8] appears, read: Nakaseomyces glabratus, ATCC 2001 / ATCC 2004, strain H = C. glabrata ATCC 2004 (footnote), read-out: MIC.
[9] abbreviates: Pichia kudriavzevii, ATCC6258, strain I = C. krusei ATCC 6258, read-out: MIC.
The mark [10] stands for this setting: Lodderomyces parapsilosis, ATCC22019, strain J = C. parapsilosis ATCC 22019, read-out: MIC.
[11] abbreviates: Aspergillus flavus, read-out: MIC.
[12] abbreviates: Aspergillus nidulans, ATCC38163, strain P = A. nidulans ATCC 38163, read-out: MIC.
Where [13] appears, read: Aspergillus terreus, read-out: MIC.
Where [14] appears, read: Cryptococcus neoformans, read-out: MIC.
Where [15] appears, read: strain H = C. glabrata ATCC 2004 (footnote).
The mark [16] stands for this setting: strain J = C. parapsilosis ATCC 22019.
Where [17] appears, read: strain P = A. nidulans ATCC 38163.

With `COc1cccc(NNC(=O)c2nc(F)ccc2F)c1` [Compound 8c], the MIC in assay [1] (setting [8]) is 15.6 µg/mL (≈ 55.9 µM); in assay [2] (setting [9]), 15.6 µg/mL (≈ 55.9 µM); in assay [3] (setting [10]), 7.8 µg/mL (≈ 27.9 µM); in assay [4] (setting [11]), over 31.3 µg/mL; in assay [5] (setting [12]), 7.8 µg/mL (≈ 27.9 µM); in assay [6] (setting [13]), 31.3 µg/mL (≈ 112 µM). For the same compound, the MIC in assay [7] (setting [14]) was found to be 7.8 µg/mL (≈ 27.9 µM).

With `O=C(NNc1ccc(F)cc1)c1nc(F)ccc1F` [Compound 8d], the MIC in assay [1] (setting [8]) is 15.6 µg/mL (≈ 58.4 µM); in assay [2] (setting [9]), 0.24 µg/mL (≈ 0.898 µM); in assay [3] (setting [10]) it was 7.8 µg/mL (≈ 29.2 µM); in assay [4] (setting [11]) it was 7.8 µg/mL (≈ 29.2 µM); in assay [5] (setting [12]), 0.49 µg/mL (≈ 1.83 µM); in assay [6] (setting [13]), 1.95 µg/mL (≈ 7.3 µM). Further, the MIC in assay [7] (setting [14]) was 0.49 µg/mL (≈ 1.83 µM).

With `O=C(NNc1ccc(Cl)cc1)c1nc(F)ccc1F` [Compound 8e], the MIC is given as 3.9 μg/mL^−1 in assay [1] (setting [15]); 3.9 μg/mL^−1 in assay [2] (strain I = C. krusei ATCC 6258); 15.6 μg/mL^−1 in assay [3] (setting [16]); over 31.3 μg/mL^−1 in assay [4]; 7.8 μg/mL^−1 in assay [5] (setting [17]); over 31.3 μg/mL^−1 in assay [6]. In addition, the MIC in assay [7] amounted to 1.95 μg/mL^−1.

In the case of `COc1ccc(NNC(=O)c2nc(F)ccc2F)cc1` [Compound 8f], the MIC in assay [1] (setting [8]) is 7.8 µg/mL (≈ 27.9 µM); in assay [2] (setting [9]), 0.98 µg/mL (≈ 3.51 µM); in assay [3] (setting [10]), 7.8 µg/mL (≈ 27.9 µM); in assay [4] (setting [11]) it was over 31.3 µg/mL; in assay [5] (setting [12]) it was 1.95 µg/mL (≈ 6.98 µM); in assay [6] (setting [13]) it was 31.3 µg/mL (≈ 112 µM). For the same compound, the MIC in assay [7] (setting [14]) worked out at 0.98 µg/mL (≈ 3.51 µM).

Regarding `O=C(NNc1ccc(F)cc1F)c1nc(F)ccc1F` [Compound 8g], the MIC in assay [1] (setting [8]) was 15.6 µg/mL (≈ 54.7 µM); in assay [2] (setting [9]), 0.49 µg/mL (≈ 1.72 µM); in assay [3] (setting [10]), 15.6 µg/mL (≈ 54.7 µM); in assay [4] (setting [11]) it was over 31.3 µg/mL; in assay [5] (setting [12]), 0.49 µg/mL (≈ 1.72 µM); in assay [6] (setting [13]) it was 31.3 µg/mL (≈ 110 µM). Besides, in assay [7] (setting [14]), the MIC was found to be 0.49 µg/mL (≈ 1.72 µM).

For `O=C(NNc1cccc(F)c1)c1cnccn1` [Compound 9a], the MIC in assay [1] (setting [15]) amounted to 7.8 μg/mL^−1; in assay [2] (strain I = C. krusei ATCC 6258), 0.49 μg/mL^−1; in assay [3] (setting [16]) it was 3.9 μg/mL^−1; in assay [4], 15.6 μg/mL^−1; in assay [5] (setting [17]) it was 0.98 μg/mL^−1; in assay [6], 0.98 μg/mL^−1. The MIC in assay [7] is recorded as 0.12 μg/mL^−1.

In the case of `O=C(NNc1cccc(Cl)c1)c1cnccn1` [Compound 9b], the MIC was 3.9 µg/mL (≈ 15.7 µM) in assay [1] (setting [8]); 0.24 µg/mL (≈ 0.965 µM) in assay [2] (setting [9]); 1.95 µg/mL (≈ 7.84 µM) in assay [3] (setting [10]); over 31.3 µg/mL in assay [4] (setting [11]); 0.98 µg/mL (≈ 3.94 µM) in assay [5] (setting [12]); 0.98 µg/mL (≈ 3.94 µM) in assay [6] (setting [13]). For the same compound, the MIC in assay [7] (setting [14]) was determined as 0.24 µg/mL (≈ 0.965 µM).

For `COc1cccc(NNC(=O)c2cnccn2)c1` [Compound 9c], the MIC in assay [1] (setting [8]) was 7.8 µg/mL (≈ 31.9 µM); in assay [2] (setting [9]), 0.49 µg/mL (≈ 2.01 µM); in assay [3] (setting [10]) it was 1.95 µg/mL (≈ 7.98 µM); in assay [4] (setting [11]) it was over 31.3 µg/mL; in assay [5] (setting [12]), 1.95 µg/mL (≈ 7.98 µM); in assay [6] (setting [13]) it was 1.95 µg/mL (≈ 7.98 µM). Further, the MIC in assay [7] (setting [14]) came out at 0.49 µg/mL (≈ 2.01 µM).

Regarding `O=C(NNc1ccc(F)cc1)c1cnccn1` [Compound 9d], the MIC in assay [1] (setting [8]) came out at 3.9 µg/mL (≈ 16.8 µM); in assay [2] (setting [9]), 0.49 µg/mL (≈ 2.11 µM); in assay [3] (setting [10]), 3.9 µg/mL (≈ 16.8 µM); in assay [4] (setting [11]), 15.6 µg/mL (≈ 67.2 µM); in assay [5] (setting [12]) it was 0.49 µg/mL (≈ 2.11 µM); in assay [6] (setting [13]), 1.95 µg/mL (≈ 8.4 µM). Besides, the MIC in assay [7] (setting [14]) stood at 0.24 µg/mL (≈ 1.03 µM).

On to `O=C(NNc1ccc(Cl)cc1)c1cnccn1` [Compound 9e], for which the MIC in assay [1] (setting [15]) is on record as 1.95 μg/mL^−1; in assay [2] (strain I = C. krusei ATCC 6258), 3.9 μg/mL^−1; in assay [3] (setting [16]), 7.8 μg/mL^−1; in assay [4] it was over 31.3 μg/mL^−1; in assay [5] (setting [17]), 1.95 μg/mL^−1; in assay [6], 7.8 μg/mL^−1. The compound also displayed an MIC in assay [7] of 0.98 μg/mL^−1.

For `COc1ccc(NNC(=O)c2cnccn2)cc1` [Compound 9f], the MIC in assay [1] (setting [8]) was 0.98 µg/mL (≈ 4.01 µM); in assay [2] (setting [9]), 0.98 µg/mL (≈ 4.01 µM); in assay [3] (setting [10]), 3.9 µg/mL (≈ 16 µM); in assay [4] (setting [11]), over 31.3 µg/mL; in assay [5] (setting [12]) it was 0.98 µg/mL (≈ 4.01 µM); in assay [6] (setting [13]), over 31.3 µg/mL. In assay [7] (setting [14]), the MIC came out at 0.98 µg/mL (≈ 4.01 µM).

Turning to `O=C(NNc1ccc(F)cc1F)c1cnccn1` [Compound 9g], the MIC in assay [1] (setting [8]) was 0.98 µg/mL (≈ 3.92 µM); in assay [2] (setting [9]) it was 0.24 µg/mL (≈ 0.959 µM); in assay [3] (setting [10]), 3.9 µg/mL (≈ 15.6 µM); in assay [4] (setting [11]), 7.8 µg/mL (≈ 31.2 µM); in assay [5] (setting [12]), 0.49 µg/mL (≈ 1.96 µM); in assay [6] (setting [13]) it was 0.98 µg/mL (≈ 3.92 µM). The MIC in assay [7] (setting [14]) stood at 0.24 µg/mL (≈ 0.959 µM).

Turning to `O=C(NNc1cc(F)ccc1F)c1cnccn1` [Compound 9h], the MIC in assay [1] (setting [8]) was 15.6 µg/mL (≈ 62.3 µM); in assay [2] (setting [9]) it was 0.49 µg/mL (≈ 1.96 µM); in assay [3] (setting [10]) it was 7.8 µg/mL (≈ 31.2 µM); in assay [4] (setting [11]), over 31.3 µg/mL; in assay [5] (setting [12]) it was 1.95 µg/mL (≈ 7.79 µM); in assay [6] (setting [13]), 1.95 µg/mL (≈ 7.79 µM). The MIC in assay [7] (setting [14]) was determined as 0.49 µg/mL (≈ 1.96 µM).

On to `O=C(NNc1cc(F)cc(F)c1)c1cnccn1` [Compound 9i], for which the MIC was found to be 7.8 µg/mL (≈ 31.2 µM) in assay [1] (setting [8]); 0.49 µg/mL (≈ 1.96 µM) in assay [2] (setting [9]); 3.9 µg/mL (≈ 15.6 µM) in assay [3] (setting [10]); 3.9 µg/mL (≈ 15.6 µM) in assay [4] (setting [11]); 1.95 µg/mL (≈ 7.79 µM) in assay [5] (setting [12]); 1.95 µg/mL (≈ 7.79 µM) in assay [6] (setting [13]). The MIC in assay [7] (setting [14]) is 0.24 µg/mL (≈ 0.959 µM).

For `O=C(NNc1cc(Cl)cc(Cl)c1)c1cnccn1` [Compound 9j], the MIC in assay [1] (setting [8]) was 15.6 µg/mL (≈ 55.1 µM); in assay [2] (setting [9]), 0.98 µg/mL (≈ 3.46 µM); in assay [3] (setting [10]) it was 3.9 µg/mL (≈ 13.8 µM); in assay [4] (setting [11]), over 31.3 µg/mL; in assay [5] (setting [12]), 7.8 µg/mL (≈ 27.6 µM); in assay [6] (setting [13]), 3.9 µg/mL (≈ 13.8 µM). Also, the MIC in assay [7] (setting [14]) was found to be 0.49 µg/mL (≈ 1.73 µM).
